In brackets after ≈: the same amount, converted by molar mass. Where a SMILES comes first, the peptide text is derived from it.
Assays:
[1] = tested on: Candida tropicalis (BNCC 340288); format: cell-based; details: BNCC 340288, 24 h
Description: (§1) The antimicrobial and antifungal activities of 11 cyclic hexapeptides (Cy-f1 to Cy-f11) were evaluated by determining their minimum inhibitory concentrations (MICs) against a panel of pathogens (Figure 4). These pathogens included Gram-negative bacteria (Escherichia coli, Klebsiella pneumoniae, Pseudomonas aeruginosa), Gram-positive bacteria (Staphylococcus aureus, Bacillus subtilis, Staphylococcus aureus [MRSA], […]), and fungi (Candida tropicalis, Cryptococcus neoformans).
(§2) The antibacterial activity of peptide analogs was tested against different bacterial strains, all purified cyclotides underwent antibacterial testing against Gram-positive bacterium Staphylococcus aureus (BNCC 186335), Bacillus subtilis (BNCC 109047), and Staphylococcus aureus (MRSA, BNCC 330041), Gram-negative bacteria, including Acinetobacter baumannii (BNCC 337173), Pseudomonas aeruginosa (BNCC 125486), and […]. Fungi included Candida parapsilosis (BNCC 336515) and Candida tropicalis (BNCC 340288). All the above strains are from the Henan Provincial Engineering Research Center of Industrial Microorganisms (Henan, China). Escherichia coli (ATCC 25922) and Klebsiella pneumoniae (CMCC(B) 46117) were sourced from Guangzhou HuanKai Microbial Technology Co., Ltd. (Guangzhou, China). The peptides’ MIC was determined using the Clinical and Laboratory Standards Institute broth dilution procedure with slight modifications.
Candida tropicalis was cultured on Sabourad Dextrose Agar (SDA). A single colony was inoculated in YM broth medium and grown overnight at 37 °C while shaking. Peptides were diluted in SDB media by two-fold dilution, resulting in 100 µL of medium containing increasing concentrations. The overnight culture (turbidity at OD600 = 1) was 1000× diluted in SDB. Then 100 µL of this suspension was added to each well, resulting in a final 200 µL suspension containing 2–4 × 10^5 CFU/mL. The plate was incubated at 37 °C for 24 h.
(§3) Each test was performed at least three times. MIC (minimum inhibitory concentration) values were determined as the concentrations of peptides that caused >99% inhibition of bacterial growth.

[2] = tested on: Cryptococcus neoformans (BNCC 225501); format: cell-based; details: BNCC 225501, 48 h
Description: as §1, §2, §3

[3] = tested on: Staphylococcus aureus (BNCC 186335); format: cell-based
Description: as §1, §2
(§4) Colonies of these bacterial strains were grown in respective agar media, then inoculated in Mueller Hinton (MH) broth and incubated at 37 °C overnight. The peptide solutions were first diluted 1 in 100 (from the stock solution at 20 mM) and then further two-fold dilution in MH broth in a sterile 96-well plate was performed, resulting in 100 µL of broth containing increasing concentrations. Bacteria in their exponential growth phase were diluted in MH broth, and 100 µL of this suspension was added in each well. […] Then, these plates were incubated at 37 °C for 20–22 h.
as §3

[4] = tested on: Pseudomonas aeruginosa (BNCC 125486); format: cell-based
Description: as §1, §2, §4, §3

[5] = tested on: Klebsiella pneumoniae (CMCC(B) 46117); format: cell-based
Description: as §1, §2, §4, §3

[6] = tested on: Staphylococcus aureus (MRSA, BNCC 330041); format: cell-based
Description: as §1, §2, §4, §3

[7] = tested on: Acinetobacter baumannii (BNCC 337173); format: cell-based
Description: as §1, §2, §4, §3

[8] = tested on: Escherichia coli (ATCC 25922); format: cell-based
Description: as §1, §2, §4, §3

[9] = tested on: Bacillus subtilis (BNCC 109047); format: cell-based
Description: as §1, §2, §4, §3

[10] = Head-to-tail amide via hydrazide-based intramolecular NCL: C-terminal peptide hydrazide + NaNO2 (10 eq, pH 3, -15 °C) to acyl azide, then MPAA (40 eq) thioester, pH 6.3-6.5 (Fig 2: 6.7-7), S-to-N acyl shift onto N-terminal Cys; TCEP work-up; details: the molecule shown is the open-chain precursor; 18-membered ring; 0.2 M sodium phosphate, 6 M guanidine HCl (aq); 0.75 mM; 25.0 °C

MIC against C. tropicalis [1]	MIC against C. neoformans [2]	MIC against S. aureus [3]	MIC against P. aeruginosa [4]	MIC against K. pneumoniae [5]	MIC against MRSA [6]	MIC against A. baumannii [7]	MIC against E. coli [8]	MIC against B. subtilis [9]	Compound	ring closure, product found (1=cyclised, 0=failed) [10]
32 µM (≈ 23.5 µg/mL)	8 µM (≈ 5.86 µg/mL)	16 µM (≈ 11.7 µg/mL)	128 µM (≈ 93.8 µg/mL)	64 µM (≈ 46.9 µg/mL)	32 µM (≈ 23.5 µg/mL)	128 µM (≈ 93.8 µg/mL)	64 µM (≈ 46.9 µg/mL)	32 µM (≈ 23.5 µg/mL)	CC[C@H](C)[C@@H]1NC(=O)[C@H](CCCCN)NC(=O)[C@H](CC(C)C)NC(=O)[C@H](CCCCN)NC(=O)[C@H](CS)NC(=O)[C@H](Cc2ccccc2)NC1=O [Cy-f3] (cyclo(CKLKIF))	–
–	–	–	–	–	–	–	–	–	CC[C@H](C)[C@H](NC(=O)[C@@H](NC(=O)[C@@H]1CCCN1C(=O)[C@H](CCCCN)NC(=O)[C@H](CCCNC(=N)N)NC(=O)[C@@H](N)CS)[C@@H](C)CC)C(=O)NN [H-Cys-Arg-Lys-Pro-Ile-Ile-NHNH2]	1
–	–	–	–	–	–	–	–	–	CC[C@H](C)[C@H](NC(=O)[C@@H](NC(=O)[C@@H]1CCCN1C(=O)[C@H](CCCNC(=N)N)NC(=O)[C@@H](NC(=O)[C@@H](N)CS)[C@@H](C)CC)[C@@H](C)CC)C(=O)NN [H-Cys-Ile-Arg-Pro-Ile-Ile-NHNH2]	1
–	–	–	–	–	–	–	–	–	CC[C@H](C)[C@H](NC(=O)[C@H](CCCCN)NC(=O)[C@H](CC(C)C)NC(=O)[C@H](CC(C)C)NC(=O)[C@@H](N)CS)C(=O)N[C@@H](Cc1ccccc1)C(=O)NN [H-Cys-Leu-Leu-Lys-Ile-Phe-NHNH2]	1
–	–	–	–	–	–	–	–	–	CC[C@H](C)[C@H](NC(=O)[C@@H]1CCCN1C(=O)[C@H](CCCCN)NC(=O)[C@H](CCCNC(=N)N)NC(=O)[C@@H](N)CS)C(=O)N[C@H](C(=O)NN)C(C)C [H-Cys-Arg-Lys-Pro-Ile-Val-NHNH2]	1
64 µM (≈ 44.5 µg/mL)	128 µM (≈ 89.1 µg/mL)	> 200 µM	> 200 µM	64 µM (≈ 44.5 µg/mL)	> 200 µM	> 200 µM	> 200 µM	64 µM (≈ 44.5 µg/mL)	CC[C@H](C)[C@@H]1NC(=O)[C@H](CS)NC(=O)[C@H]([C@@H](C)CC)NC(=O)[C@H]([C@@H](C)CC)NC(=O)[C@@H]2CCCN2C(=O)[C@H](CCCNC(=N)N)NC1=O [Cy-f11] (cyclo(CIRPII))	–
64 µM (≈ 45.5 µg/mL)	32 µM (≈ 22.8 µg/mL)	16 µM (≈ 11.4 µg/mL)	128 µM (≈ 91 µg/mL)	–	–	–	128 µM (≈ 91 µg/mL)	–	CC[C@H](C)[C@@H]1NC(=O)[C@H]([C@@H](C)CC)NC(=O)[C@@H]2CCCN2C(=O)[C@H](CCCCN)NC(=O)[C@H](CCCNC(=N)N)NC(=O)[C@H](CS)NC1=O [Cy-f5] (cyclo(CRKPII))	–
–	–	–	–	–	–	–	–	–	CC[C@H](C)[C@H](NC(=O)[C@@H](NC(=O)[C@H](CCCNC(=N)N)NC(=O)[C@@H](N)CS)C(C)C)C(=O)N[C@H](C(=O)N[C@@H](CCCNC(=N)N)C(=O)NN)[C@@H](C)CC [H-Cys-Arg-Val-Ile-Ile-Arg-NHNH2]	1
> 200 µM	> 200 µM	> 200 µM	> 200 µM	> 200 µM	> 200 µM	> 200 µM	> 200 µM	> 200 µM	CC[C@H](C)[C@@H]1NC(=O)[C@H](CS)NC(=O)[C@H](CC(C)C)NC(=O)[C@H]([C@@H](C)CC)NC(=O)[C@@H]2CCCN2C(=O)[C@H](CCCNC(=N)N)NC1=O [Cy-f9] (cyclo(CIRPIL))	–
16 µM (≈ 11.6 µg/mL)	32 µM (≈ 23.3 µg/mL)	8 µM (≈ 5.82 µg/mL)	–	32 µM (≈ 23.3 µg/mL)	–	–	16 µM (≈ 11.6 µg/mL)	8 µM (≈ 5.82 µg/mL)	CC[C@H](C)[C@@H]1NC(=O)[C@H](CCCNC(=N)N)NC(=O)[C@H](CS)NC(=O)[C@H](CCCNC(=N)N)NC(=O)[C@H](C(C)C)NC(=O)[C@H](C(C)C)NC1=O [Cy-f8] (cyclo(CRIVVR))	–
–	–	–	–	–	–	–	–	–	CC(C)C[C@H](NC(=O)[C@@H](NC(=O)[C@@H]1CCCN1C(=O)[C@H](CCCCN)NC(=O)[C@H](CCCNC(=N)N)NC(=O)[C@@H](N)CS)C(C)C)C(=O)NN [H-Cys-Arg-Lys-Pro-Val-Leu-NHNH2]	1
–	–	–	–	–	–	–	–	–	CC(C)C[C@H](NC(=O)[C@H](CCCCN)NC(=O)[C@@H](N)CS)C(=O)N[C@@H](CCCNC(=N)N)C(=O)N[C@@H](Cc1c[nH]c2ccccc12)C(=O)N[C@@H](Cc1ccccc1)C(=O)NN [H-Cys-Lys-Leu-Arg-Trp-Phe-NHNH2]	1
–	–	–	–	–	–	–	–	–	CC[C@H](C)[C@H](NC(=O)[C@@H](N)CS)C(=O)N[C@@H](CCCNC(=N)N)C(=O)N1CCC[C@H]1C(=O)N[C@H](C(=O)N[C@@H](CC(C)C)C(=O)NN)[C@@H](C)CC [H-Cys-Ile-Arg-Pro-Ile-Leu-NHNH2]	1
128 µM (≈ 94.8 µg/mL)	16 µM (≈ 11.9 µg/mL)	8 µM (≈ 5.93 µg/mL)	128 µM (≈ 94.8 µg/mL)	–	–	–	–	–	CC[C@H](C)[C@@H]1NC(=O)[C@H](C(C)C)NC(=O)[C@H](CCCNC(=N)N)NC(=O)[C@H](CS)NC(=O)[C@H](CCCNC(=N)N)NC(=O)[C@H]([C@@H](C)CC)NC1=O [Cy-f10] (cyclo(CRVIIR))	–
–	–	–	–	–	–	–	–	–	CC[C@H](C)[C@H](NC(=O)[C@H](CCCNC(=N)N)NC(=O)[C@@H](N)CS)C(=O)N[C@H](C(=O)N[C@H](C(=O)N[C@@H](CCCNC(=N)N)C(=O)NN)C(C)C)C(C)C [H-Cys-Arg-Ile-Val-Val-Arg-NHNH2]	1
–	–	–	–	–	–	–	–	–	CC[C@H](C)[C@H](NC(=O)[C@H](CCCCN)NC(=O)[C@H](CC(C)C)NC(=O)[C@H](CCCNC(=N)N)NC(=O)[C@@H](N)CS)C(=O)N[C@@H](Cc1ccccc1)C(=O)NN [H-Cys-Arg-Leu-Lys-Ile-Phe-NHNH2]	1
–	–	–	–	–	–	–	–	–	CC[C@H](C)[C@H](NC(=O)[C@H](CCCCN)NC(=O)[C@H](CC(C)C)NC(=O)[C@H](CCCCN)NC(=O)[C@@H](N)CS)C(=O)N[C@@H](Cc1ccccc1)C(=O)NN [H-Cys-Lys-Leu-Lys-Ile-Phe-NHNH2]	1
> 200 µM	> 200 µM	> 200 µM	> 200 µM	> 200 µM	> 200 µM	> 200 µM	> 200 µM	> 200 µM	CC[C@H](C)[C@@H]1NC(=O)[C@@H]2CCCN2C(=O)[C@H](CCCCN)NC(=O)[C@H](CCCNC(=N)N)NC(=O)[C@H](CS)NC(=O)[C@H](C(C)C)NC1=O [Cy-f6] (cyclo(CRKPIV))	–
32 µM (≈ 22.3 µg/mL)	16 µM (≈ 11.2 µg/mL)	32 µM (≈ 22.3 µg/mL)	128 µM (≈ 89.2 µg/mL)	–	–	–	128 µM (≈ 89.2 µg/mL)	–	CC(C)C[C@@H]1NC(=O)[C@H](C(C)C)NC(=O)[C@@H]2CCCN2C(=O)[C@H](CCCCN)NC(=O)[C@H](CCCNC(=N)N)NC(=O)[C@H](CS)NC1=O [Cy-f7] (cyclo(CRKPVL))	–

— article PMC12156185, “Synthesis of Cyclic Hexapeptides via the Hydrazide Method and Evaluation of Their Antibacterial Activities” (Molecules, 2025)
